Results reported in ChEMBL document CHEMBL5678795 (Eur J Pharmacol, 1999).
Calls of active or inactive are those of the source. The calls are words filed in the database; no cut-off is given here.

Experiments:
[1] = molecular target: Muscarinic acetylcholine receptor M3 (Homo sapiens) (UniProt P20309); assay: Displacement of [3H]4-DAMP from human recombinant muscarinic M3 receptor at 10 uM incubated for 60 mins by radiometric based scintillation counter assay relative to control
[2] = molecular target: Endothelin receptor type B (Oryctolagus cuniculus, UniProt Q9N0W7); assay: Antagonist activity to ETB receptor in sarafotoxin-6c stimulated rabbit pulmonary artery assessed as induction of vessel ring contraction preincubated for 15 mins; type: functional, tissue-based; conditions: read-out: pA2 (converted)
Endothelin receptor type B, sequence (Q9N0W7 whole entry): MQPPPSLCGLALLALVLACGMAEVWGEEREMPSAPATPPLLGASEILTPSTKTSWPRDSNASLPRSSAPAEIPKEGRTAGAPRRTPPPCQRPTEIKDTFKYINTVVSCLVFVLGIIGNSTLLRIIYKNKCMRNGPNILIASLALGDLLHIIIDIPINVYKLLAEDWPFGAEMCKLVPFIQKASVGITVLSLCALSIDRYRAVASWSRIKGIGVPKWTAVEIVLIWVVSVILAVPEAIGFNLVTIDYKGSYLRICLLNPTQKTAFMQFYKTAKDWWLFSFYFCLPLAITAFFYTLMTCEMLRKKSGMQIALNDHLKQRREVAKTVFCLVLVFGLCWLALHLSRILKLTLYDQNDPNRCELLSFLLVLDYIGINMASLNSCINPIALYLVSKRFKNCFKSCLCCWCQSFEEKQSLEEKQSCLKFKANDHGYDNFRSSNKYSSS

[3] = molecular target: Muscarinic acetylcholine receptor M5 (Homo sapiens) (UniProt P08912); assay: Displacement of [3H]4-DAMP from human recombinant muscarinic M5 receptor at 10 uM incubated for 60 mins by radiometric based scintillation counter assay relative to control
Muscarinic acetylcholine receptor M5 (Homo sapiens), sequence (P08912 whole entry): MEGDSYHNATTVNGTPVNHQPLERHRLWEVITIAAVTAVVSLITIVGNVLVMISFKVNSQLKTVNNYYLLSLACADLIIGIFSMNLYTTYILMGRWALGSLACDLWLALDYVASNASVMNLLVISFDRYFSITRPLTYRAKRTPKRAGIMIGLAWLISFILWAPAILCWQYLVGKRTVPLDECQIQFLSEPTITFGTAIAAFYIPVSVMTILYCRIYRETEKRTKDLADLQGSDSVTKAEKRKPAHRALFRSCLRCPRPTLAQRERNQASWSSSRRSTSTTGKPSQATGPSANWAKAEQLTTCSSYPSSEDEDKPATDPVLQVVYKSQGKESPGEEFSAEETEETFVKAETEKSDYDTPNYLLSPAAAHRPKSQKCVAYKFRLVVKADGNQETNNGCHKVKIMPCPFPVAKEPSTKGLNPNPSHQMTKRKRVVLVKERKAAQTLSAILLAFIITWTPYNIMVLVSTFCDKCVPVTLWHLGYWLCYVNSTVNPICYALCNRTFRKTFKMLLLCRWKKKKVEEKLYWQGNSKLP

Homo sapiens [4] = species: Homo sapiens; assay: Displacement of [3H]Dofetilide from human recombinant voltage-dependent K+ channel at 10 uM incubated for 60 mins by radiometric based scintillation counter assay relative to control
Homo sapiens [5] = species: Homo sapiens; assay: Inhibition of Voltage-gated Na+ channel (site 1) (unknown origin) at 10 uM by radioligand binding assay relative to control
[6] = system: P2Y purinergic receptor (Rattus norvegicus); assay: Displacement of [35S]dATPalpha S from rat brain P2Y-purinergic receptor at 10 uM incubated for 60 mins by radiometric based scintillation counter assay relative to control
[7] = molecular target: Muscarinic acetylcholine receptor M4 (Homo sapiens) (UniProt P08173); assay: Displacement of [3H]4-DAMP from human recombinant muscarinic M4 receptor at 10 uM incubated for 60 mins by radiometric based scintillation counter assay relative to control
Muscarinic acetylcholine receptor M4 (Homo sapiens), sequence (P08173 whole entry): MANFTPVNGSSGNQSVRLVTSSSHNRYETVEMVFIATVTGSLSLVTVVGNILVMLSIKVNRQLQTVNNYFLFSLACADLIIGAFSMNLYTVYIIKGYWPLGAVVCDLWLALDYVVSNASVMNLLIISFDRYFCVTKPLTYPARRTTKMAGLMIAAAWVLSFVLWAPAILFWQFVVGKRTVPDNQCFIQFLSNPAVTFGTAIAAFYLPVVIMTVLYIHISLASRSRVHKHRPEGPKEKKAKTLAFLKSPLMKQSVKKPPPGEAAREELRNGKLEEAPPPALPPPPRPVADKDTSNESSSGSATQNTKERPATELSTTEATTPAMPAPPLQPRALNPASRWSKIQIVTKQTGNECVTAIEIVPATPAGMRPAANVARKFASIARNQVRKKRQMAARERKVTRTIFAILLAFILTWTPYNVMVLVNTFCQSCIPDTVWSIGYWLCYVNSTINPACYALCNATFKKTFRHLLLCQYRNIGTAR

[8] = molecular target: Type-1 angiotensin II receptor (Homo sapiens) (UniProt P30556); assay: Displacement of [125I][Sar1,Ile8]-AT-II from human recombinant angiotensin AT1 receptor at 10 uM incubated for 120 mins by radiometric based scintillation counter assay relative to control
Type-1 angiotensin II receptor (Homo sapiens), sequence (P30556 whole entry): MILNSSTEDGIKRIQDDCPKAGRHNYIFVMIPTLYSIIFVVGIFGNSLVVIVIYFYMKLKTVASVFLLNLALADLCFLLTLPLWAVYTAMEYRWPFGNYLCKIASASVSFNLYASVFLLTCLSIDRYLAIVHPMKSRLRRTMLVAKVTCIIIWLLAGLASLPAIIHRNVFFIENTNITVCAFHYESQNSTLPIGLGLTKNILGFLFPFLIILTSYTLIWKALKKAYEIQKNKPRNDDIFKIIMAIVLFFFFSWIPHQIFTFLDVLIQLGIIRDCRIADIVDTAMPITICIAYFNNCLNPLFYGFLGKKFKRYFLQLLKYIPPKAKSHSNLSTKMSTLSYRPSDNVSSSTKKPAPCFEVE

[9] = Oral bioavailability in Beagle dog at 5 mg/kg administered for 12 hrs by HPLC analysis; type: ADME, organism-based, Canis lupus familiaris; conditions: in vivo
[10] = molecular target: Muscarinic acetylcholine receptor M1 (Homo sapiens) (UniProt P11229); assay: Displacement of [3H]pirenzepine from human recombinant muscarinic M1 receptor at 10 uM incubated for 60 mins by radiometric based scintillation counter assay relative to control
Muscarinic acetylcholine receptor M1 (Homo sapiens), sequence (P11229 whole entry): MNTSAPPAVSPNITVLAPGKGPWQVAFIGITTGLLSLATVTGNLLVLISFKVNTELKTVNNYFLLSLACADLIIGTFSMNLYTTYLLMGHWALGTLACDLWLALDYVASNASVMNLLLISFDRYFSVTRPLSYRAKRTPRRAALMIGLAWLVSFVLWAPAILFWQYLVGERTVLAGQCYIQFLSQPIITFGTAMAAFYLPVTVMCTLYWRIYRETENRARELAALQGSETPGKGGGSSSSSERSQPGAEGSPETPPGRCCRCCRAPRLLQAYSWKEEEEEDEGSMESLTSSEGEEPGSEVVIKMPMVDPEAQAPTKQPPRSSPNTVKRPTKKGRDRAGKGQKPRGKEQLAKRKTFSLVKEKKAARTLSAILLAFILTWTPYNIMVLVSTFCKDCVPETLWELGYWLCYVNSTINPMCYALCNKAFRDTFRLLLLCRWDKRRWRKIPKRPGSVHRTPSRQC

[11] = Plasma clearance in Sprague-Dawley rat at 5 mg/kg, iv administered for 12 hrs by reverse phase HPLC-UV analysis; type: ADME, organism-based
[12] = molecular target: Interleukin-1 beta (Homo sapiens) (UniProt P01584); assay: Inhibition of Interleukin-1beta (unknown origin) at 10 uM by radioligand binding assay relative to control
Interleukin-1 beta (Homo sapiens), sequence (P01584 117-269 limits assumed): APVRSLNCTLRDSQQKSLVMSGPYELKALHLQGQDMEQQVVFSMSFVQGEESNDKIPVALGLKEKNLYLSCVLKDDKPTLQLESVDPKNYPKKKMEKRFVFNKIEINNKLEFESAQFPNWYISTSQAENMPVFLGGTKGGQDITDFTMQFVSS

Endothelin-1 receptor = molecular target: T1, Endothelin-1 receptor (Rattus norvegicus, UniProt P26684); assay: Displacement of [125I]endhothelin-1 from ETA receptor in rat MMQ cells Membrane at 25 degC incubated for 3 hrs by radioligand competition binding assay; type: cell membranes
T1 sequence (P26684 whole entry): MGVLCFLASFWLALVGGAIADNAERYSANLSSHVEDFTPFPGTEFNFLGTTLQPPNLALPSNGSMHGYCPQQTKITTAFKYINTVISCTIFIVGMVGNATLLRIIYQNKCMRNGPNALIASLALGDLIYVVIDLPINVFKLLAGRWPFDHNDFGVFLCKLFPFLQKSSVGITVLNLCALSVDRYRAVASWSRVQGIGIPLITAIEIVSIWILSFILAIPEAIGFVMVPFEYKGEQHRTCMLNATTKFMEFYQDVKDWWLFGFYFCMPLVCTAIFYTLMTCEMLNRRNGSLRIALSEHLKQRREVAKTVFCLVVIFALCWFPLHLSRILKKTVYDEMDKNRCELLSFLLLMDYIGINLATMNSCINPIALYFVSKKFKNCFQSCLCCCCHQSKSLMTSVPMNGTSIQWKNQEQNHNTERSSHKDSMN

[13] = molecular target: Vasopressin V1a receptor (Homo sapiens) (UniProt P37288); assay: Displacement of [3H]AVP from human recombinant Vasopressin V1a receptor at 10 uM incubated for 60 mins by radiometric based scintillation counter assay relative to control
Vasopressin V1a receptor (Homo sapiens), sequence (P37288 whole entry, looked up): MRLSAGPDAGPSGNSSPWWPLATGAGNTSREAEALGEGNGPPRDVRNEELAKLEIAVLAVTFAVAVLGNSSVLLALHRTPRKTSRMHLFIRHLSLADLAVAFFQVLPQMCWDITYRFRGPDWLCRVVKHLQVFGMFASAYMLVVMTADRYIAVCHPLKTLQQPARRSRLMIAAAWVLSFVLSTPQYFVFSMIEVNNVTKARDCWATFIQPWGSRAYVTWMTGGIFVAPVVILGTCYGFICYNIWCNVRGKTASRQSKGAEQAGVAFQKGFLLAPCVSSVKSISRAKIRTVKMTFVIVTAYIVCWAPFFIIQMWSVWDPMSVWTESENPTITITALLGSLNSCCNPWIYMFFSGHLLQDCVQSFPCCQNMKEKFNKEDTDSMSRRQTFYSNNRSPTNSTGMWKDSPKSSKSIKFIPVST

[14] = molecular target: T2, Endothelin-1 receptor (Rattus norvegicus) (UniProt P26684); assay: Antagonist activity at ETA receptor in rat MMQ cells assessed as inhibition of phosphatidylinositol hydrolysis in presence of myo-[3H] inositol by anion exchange chromatography; type: functional, cell-based
T2 sequence (whole entry): T1 sequence (P26684 whole entry)

Homo sapiens [15] = species: Homo sapiens; assay: Inhibition of Ca2+ dependent potassium channel (unknown origin) at 10 uM by radioligand binding assay relative to control
[16] = molecular target: T2, Endothelin-1 receptor (Rattus norvegicus); assay: In vivo antagonist activity to ETA receptor in endothelin-1 induced Sprague-Dawley rat assessed as reduction of vasopressor response at 30 mg/kg, po administered for 24 hrs; type: functional, organism-based
[17] = Cmax in cynomolgus monkey at 5 mg/kg, po administered for 12 hrs by HPLC analysis; type: ADME, organism-based, Macaca fascicularis; conditions: in vivo
[18] = molecular target: D(3) dopamine receptor (Homo sapiens) (UniProt P35462); assay: Displacement of [3H]methyl-spiperone from human recombinant dopamine D3 receptor at 10 uM incubated for 60 mins by radiometric based scintillation counter assay relative to control
D(3) dopamine receptor (Homo sapiens), sequence (P35462 whole entry): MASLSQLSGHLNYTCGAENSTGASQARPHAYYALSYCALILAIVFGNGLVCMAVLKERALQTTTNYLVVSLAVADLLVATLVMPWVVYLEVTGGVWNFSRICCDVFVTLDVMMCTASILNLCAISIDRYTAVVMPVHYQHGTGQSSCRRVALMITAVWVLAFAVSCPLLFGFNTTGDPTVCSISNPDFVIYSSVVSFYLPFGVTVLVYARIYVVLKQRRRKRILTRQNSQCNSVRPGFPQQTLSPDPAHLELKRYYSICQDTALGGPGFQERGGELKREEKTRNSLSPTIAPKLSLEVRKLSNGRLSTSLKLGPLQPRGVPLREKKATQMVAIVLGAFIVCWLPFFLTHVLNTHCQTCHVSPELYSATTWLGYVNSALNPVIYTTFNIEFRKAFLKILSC

[19] = molecular target: Beta-1 adrenergic receptor (Homo sapiens) (UniProt P08588); assay: Displacement of [3H](-)CGP 12177 from human recombinant beta1-adrenoceptor at 10 uM incubated for 60 mins by radiometric based scintillation counter assay relative to control
[20] = molecular target: Delta-type opioid receptor (Homo sapiens) (UniProt P41143); assay: Displacement of [3H]DPDPE from human recombinant delta-Opioid receptor at 10 uM incubated for 60 mins by radiometric based scintillation counter assay relative to control; conditions: filed as antagonist
Delta-type opioid receptor (Homo sapiens), sequence (P41143 whole entry): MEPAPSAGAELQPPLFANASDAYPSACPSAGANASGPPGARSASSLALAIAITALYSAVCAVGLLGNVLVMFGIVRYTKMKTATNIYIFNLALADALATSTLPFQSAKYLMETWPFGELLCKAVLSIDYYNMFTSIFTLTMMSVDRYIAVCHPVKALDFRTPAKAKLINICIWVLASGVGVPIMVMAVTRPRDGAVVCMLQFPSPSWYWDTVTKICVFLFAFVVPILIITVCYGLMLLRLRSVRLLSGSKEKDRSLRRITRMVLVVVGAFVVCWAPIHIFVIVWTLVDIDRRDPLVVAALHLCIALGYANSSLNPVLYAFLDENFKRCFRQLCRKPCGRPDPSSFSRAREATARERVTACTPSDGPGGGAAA

[21] = molecular target: D(1A) dopamine receptor (Homo sapiens) (UniProt P21728); assay: Displacement of [3H]SCH 23390 from human recombinant dopamine D1 receptor at 10 uM incubated for 60 mins by radiometric based scintillation counter assay relative to control
D(1A) dopamine receptor (Homo sapiens), sequence (P21728 whole entry): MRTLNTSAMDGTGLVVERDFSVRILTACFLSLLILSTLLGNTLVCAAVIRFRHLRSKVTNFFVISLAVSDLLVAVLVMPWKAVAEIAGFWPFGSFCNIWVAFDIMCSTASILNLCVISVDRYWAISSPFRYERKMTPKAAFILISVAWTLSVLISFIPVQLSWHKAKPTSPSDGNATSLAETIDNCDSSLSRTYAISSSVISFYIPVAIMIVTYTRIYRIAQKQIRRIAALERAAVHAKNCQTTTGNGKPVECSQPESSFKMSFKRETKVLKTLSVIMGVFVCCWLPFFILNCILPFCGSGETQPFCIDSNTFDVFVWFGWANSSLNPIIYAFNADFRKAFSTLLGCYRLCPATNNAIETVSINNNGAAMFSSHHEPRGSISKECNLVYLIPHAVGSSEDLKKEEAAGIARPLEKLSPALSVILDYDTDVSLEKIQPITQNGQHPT

[22] = system: Glutamate receptor ionotropic NMDA (PCP site); assay: Inhibition of PCP receptor (unknown origin) at 10 uM by radioligand binding assay relative to control; conditions: Homo sapiens
Homo sapiens [23] = species: Homo sapiens; assay: Inhibition of L-type Ca2+ channel (unknown origin) at 10 uM by radioligand binding assay relative to control
Rattus norvegicus = species: Rattus norvegicus; assay: Displacement of [3H]GABA from rat brain GABA receptor at 10 uM incubated for 60 mins by radiometric based scintillation counter assay relative to control; type: tissue-based

Muscarinic acetylcholine receptor M3 (Homo sapiens), sequence (P20309 whole entry, looked up): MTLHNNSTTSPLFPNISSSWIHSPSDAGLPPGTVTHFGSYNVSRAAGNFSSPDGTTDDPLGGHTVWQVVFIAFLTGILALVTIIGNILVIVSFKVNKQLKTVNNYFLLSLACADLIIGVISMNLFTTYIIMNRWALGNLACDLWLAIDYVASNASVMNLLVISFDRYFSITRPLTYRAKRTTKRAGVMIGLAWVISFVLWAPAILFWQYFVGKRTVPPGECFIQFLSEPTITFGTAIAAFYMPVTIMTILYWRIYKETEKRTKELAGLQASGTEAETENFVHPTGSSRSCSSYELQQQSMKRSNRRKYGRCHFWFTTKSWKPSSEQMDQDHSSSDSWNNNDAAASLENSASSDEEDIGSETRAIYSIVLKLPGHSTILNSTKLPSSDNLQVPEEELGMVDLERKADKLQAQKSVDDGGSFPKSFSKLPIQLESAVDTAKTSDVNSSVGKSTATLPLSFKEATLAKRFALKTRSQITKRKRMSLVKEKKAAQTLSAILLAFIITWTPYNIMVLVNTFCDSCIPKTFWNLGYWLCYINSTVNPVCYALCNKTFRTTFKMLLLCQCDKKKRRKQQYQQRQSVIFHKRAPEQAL

**Q.** What does the source list for `CCCCN(CCCC)C(=O)CN1[C@H](c2cc(OC)c3c(c2)OCO3)C[C@@H](C(=O)O)[C@@H]1CC(C)(C)CCC`?
**A.** inhibition [1]: < 10%; Kb [2]: 26.9 µM; inhibition [3]: < 10%; inhibition (Homo sapiens [4]): < 10%; inhibition (Homo sapiens [5]): 22%; inhibition [6]: < 10%; inhibition [7]: < 10%; inhibition [8]: < 10%; bioavailability [9]: 19.9%; inhibition [10]: < 10%; clearance [11]: 25 mL/min/kg; inhibition [12]: < 10%; IC50 (Endothelin-1 receptor): 0.00056 µM; inhibition [13]: < 10%; Activity [14]: inactive; inhibition (Homo sapiens [15]): < 10%; Activity [16]: inactive; Cmax [17]: 1100 ng/mL; inhibition [18]: < 10%; inhibition [19]: < 10%; inhibition [20]: 62%; inhibition [21]: 14%; inhibition [22]: < 10%; inhibition (Homo sapiens [23]): 29%; inhibition (Rattus norvegicus): < 10%
